Data taken from patent US5688824A, “Use of leflunomide to prevent or control xenograft rejection” (priority 1996, dated 1997).
Entries after “also recorded” stand apart in the source; their conditions may differ. Where two headings read alike, the source gives them in different places.

What was measured:
[1] = tested on: chronic rejection of rat cardiac allografts; assay: chronic rejection of rat cardiac allografts (LEW to F-344), histologic scoring of arterial intimal thickening; format: in vivo
Description: These rats share major histocompatibility antigens but differ at minor histocompatibility loci. A short course of immunosuppression results in a slow chronic rejection that gradually destroys the graft, with the appearance of reproducible histology similar to the chronic rejection seen in humans.
Donor and recipient animals were anesthetized with Ketamine/Xylazine (Fort Dodge, Iowa) 100/5 mg/kg. […] Cardiac allograft survival was determined by daily abdominal palpation, and rejection was considered complete upon cessation of heart beat.
The three control groups were given no treatment and were sacrificed at designated 30-day intervals to observe the development of chronic rejection. The treatment groups were administered daily doses of leflunomide or leflunomide and CsA according to Table 1 below, beginning at day 30 and continuing to day 60 or day 90. CsA in oral form (Sandimmune, Sandoz Corporation, East Hanover, N.J.) was administered at 2, 5 or 10 mg/kg to rats by gavage.
Upon sacrifice, the heart allograft was removed, serially sectioned into approximately 2-mm slices, and fixed in 10% buffered formalin overnight. The sections were embedded in paraffin and stained with hematoxylin and eosin, Verhoeff's elastin stain and Masson's trichrome stain to evaluate pathologic changes and to score graft arterial intimal thickening. The remaining sections were immunostained using standard indirect avidin-biotin techniques (Vectastain ABC-Elite, Vector Laboratories, Burlingame, Calif.) with monoclonal antibodies against smooth muscle actin (DAKO, Carpin Terra, Calif.) to evaluate intimal smooth muscle proliferation, and with polyclonal antibodies against phosphotyrosine to evaluate tyrosine kinase activity by counting phosphotyrosine positive cells. […] Allospecific antibody titres among the groups were compared using the unpaired Student's t-test.
The sections were examined by light microscopy, and 20 to 70 arteries in each allograft were blindly scored for severity of arterial intimal thickening according to the general standard of Adams et al., supra, using the following histological scores: a score of 0 was a normal artery; a score of 1, intimal thickening up to approximately 50% of the perimeter of the vessel, with less than 20% luminal compromise; a score of 2, intimal thickening involving between 50% and 100% of the perimeter of the vessel, with less than 20% luminal compromise; score of 3, circumferential intimal thickening, with more than 20% but less than 50% luminal compromise; score of 4, circumferential intimal thickening, with more than 50% but less than 80% luminal compromise; score of 5, circumferential intimal thickening, with more than 80% luminal compromise. […] Statistical comparisons of histological scores were performed using the Mann-Whitney U--Wilcoxon Rank Sum W Test.

[2] = tested on: renal allograft; settings: cited from earlier work
[3] = tested on: glomerulonephritis; settings: oral 2 mg/kg/day, prophylactic or therapeutic; cited from earlier work
[4] = tested on: anti-donor specific IgM and IgG; assay: anti-donor specific IgM and IgG titers by flow cytometry, cardiac xenografts; format: in vivo, rat; settings: leflunomide alone
Description: Serum samples were obtained from the animals by drawing 0.2 ml of blood from the tail vein at two day intervals, for the first eight days after transplantation, and then at seven day intervals after day 14. Serum samples were stored at -80° C. The anti-donor specific IgM and IgG titers were measured using cervical lymph nodes from hamsters as target cells for flow cytometry. Lymphocytes obtained from the lymph nodes were washed with PBS and suspended at a concentration of 10^7 cells/ml. Aliquots of 50 μl containing ~5×10^5 lymphocytes were incubated with 50 μl of diluted sera (diluted 1:25 in phosphate buffered saline) for 30 minutes at 4° C. and then washed twice in 1 ml of PBS. IgM and IgG antibodies were stained by incubating the washed cells for 30 minutes at 4° C. with 50 μl of PBS containing a mixture of labeled goat antibodies specific for rat IgG and rat IgM (Jackson Immunoresearch Labs, Westgrove, Pa.). After staining, the cells were washed twice, fixed in 1% formalin and analyzed on the BPICS-C flow cytometry (Coulter Company), according to Williams et al., Transplantation, 57:1223-1231 (1994).

[5] = tested on: intimal thickening in balloon-injured carotids; settings: 20 mg/kg daily from day 3 pre-transplant to day 13 post-transplant; cited from earlier work
[6] = tested on: rat adjuvant arthritis models and rat allergic encephalitis model; settings: cited from earlier work
[7] = tested on: skin grafts; settings: cited from earlier work
[8] = tested on: cytotoxic antibody; assay: complement-mediated cytotoxicity assay, cardiac xenografts; format: in vivo, rat; settings: leflunomide therapy
[9] = tested on: cGvH disease or SLE; settings: mouse, U.S. Pat. No. 4,965,276; cited from earlier work
[10] = tested on: xenophile antibodies to human peripheral blood lymphocytes (PBL); settings: cited from earlier work
[11] = tested on: tubulointerstitial nephritis; settings: BN rats, cited from earlier work
[12] = tested on: SLE in MRL/lpr mice; settings: cited from earlier work
[13] = tested on: IL-2; settings: cited from earlier work

SMILES: Cc1oncc1C(=O)Nc1ccc(C(F)(F)F)cc1 [leflunomide, N-(4-trifluoromethylphenyl)-5-methylisoxazol-4-carboxamide]
- effect on chronic rejection process ([1]; 5 mg/kg (each) from day 30, 10 mg/kg (each) day 60 to 90): able to halt the progression of chronic rejection and partially reverse the process of arterial thickening
- mononuclear cell infiltration, myocardial fibrosis, smooth muscle proliferation ([1]; 5 mg/kg (each) from day 30, 10 mg/kg (each) day 60 to 90, day 90): Interstitial mononuclear cell infiltration and myocardial fibrosis were mild
- arterial intimal thickening, change vs control ([1]; 5 mg/kg (each) from day 30, day 60): did not significantly improve by day 60
- Histological Scores (mean vascular histologic score) ([1]; Lef 5 mg/kg day 30 to 60, then 10 mg/kg day 60 to 90, group 8): 1.38±0.92
- Histological Scores (mean vascular histologic score) ([1]; Lef 5 mg/kg day 30 to 60, then 10 mg/kg day 60 to 90, group 8, listed as Lef): 1.4 ± 0.9
- Histological Scores (mean vascular histologic score) ([1]; Lef 5 mg/kg from day 30 to day 60, group 5, sacrificed day 60): 1.55±0.53
- Histological Scores (mean vascular histologic score) ([1]; Lef 5 mg/kg from day 30 to day 60, group 5, sacrificed day 60, listed as Lef): 1.6 ± 0.5
- survival ([2]; 5 or 10 mg/kg/day by gavage for 30 days): more than 60 days
- protection ([2]; BN-LEW renal transplant): very similar to the protection attainable with CsA treatment
- effect on glomerulonephritis [3]: effective in both preventing and curing glomerulonephritis; also recorded: significant decrease in total urinary protein, plasma cholesterol and fibrinogen, as well as decreased deposition of fibrin, immunoglobulin G and complement C3
- IgG levels [4]: IgG levels remained at baseline
- IgM titres [4]: delayed and slowed the rise of IgM titres, but did not completely suppress IgM rise
- intimal thickening [5]: significantly reduced intimal thickening in balloon-injured carotids
- anti-inflammatory activity and toxicity ([6]; U.S. Pat. No. 4,351,841): superior anti-inflammatory activity and decreased toxicity
- inhibition of immunopathological processes ([6]; two rat adjuvant arthritis models and a rat allergic encephalitis model): inhibit immunopathological processes
- skin graft survival time vs untreated ([7]; 2.5 to 20 mg/kg by gavage for 10 days): more than doubled graft survival time compared to untreated animals
- skin graft survival, delayed treatment ([7]; started five to ten days after grafting): achieved prolongation of skin graft survival
- cytotoxic antibody titres [8]: prevented or reversed the cytotoxic antibody titres
- glomerulonephritis, anti-dsDNA titer, GvH index, T-lymphocyte proliferative ability [9]: prevented development of glomerulonephritis, reduced anti-dsDNA titer, decreased the GvH index (a measure of relative spleen enlargement), and improved the diminished proliferative ability of T-lymphocytes
- inhibition of development of cGvH disease or SLE [9]: effective in inhibiting the development of cGvH disease or SLE
- pre-existing, natural xenophile antibodies ([10]; 10 mg/kg/day for 10 days): decrease in pre-existing, natural xenophile antibodies
- xenophile antibody production ([10]; 3 or 10 mg/kg/day from day -4 to day +10, sensitized rats): inhibited xenophile antibody production in a dose-dependent manner
- prevention of tubulointerstitial nephritis [11]: very effective
- reduction of incidence of auto-antibody formation [11]: much more effective than any of the other drugs in reducing the incidence of auto-antibody formation
- prevention of tubulointerstitial nephritis ([11]; listed as Leflunomide): as effective as Cyclosporine A, and was more effective than prednisolone, naproxen or indomethacin in preventing disease development
- ability to inhibit SLE relative to Cyclosporine A ([12]; MRL/lpr mice): equal or superior to Cyclosporine A (CsA) in ability to inhibit SLE
- disease progression, lymphocyte accumulation, T-cell ratio ([12]; MRL/lpr mice): stops disease progression and prevents the development of glomerulonephritis
- disease progression, lymphocyte accumulation, T-cell ratio ([12]; MRL/lpr mice, listed as Leflunomide): suppresses the intense accumulation of lymphocytes in the lymph nodes and spleen of these mice, restores the T-cell helper/suppressor ratio to normal values, and restores the depressed proliferative response of lymphocytes and macrophages
- animals still alive ([12]; at the end of 10 weeks, mice with elevated urine protein): 90%
- inhibition of production of IL-2 [13]: only partially inhibits the production of IL-2
